How the values were obtained:
[1] = tested on: 3T3-L1 adipocytes; assay: MTT assay of cell viability of adipocytes; assay type: cell-based, mouse; conditions: 24 hr
Protocol: (§1) The MTT assay of 3T3-L1 adipocytes grown in the medium containing vehicle or cytopiloyne at the indicated concentration for 24 hr is shown (A). 3T3-L1 pre-adipocytes were initiated for differentiation with DMSO (vehicle) and a mixture of Dex, IBMX and insulin for 2 days (B). The differentiating cells were then incubated with vehicle (inducer), rosiglitazone (RSG) or different doses of cytopiloyne until complete differentiation occurred. Lipid droplets from all the cells were visualized by Oil-Red-O staining and examined by light microscopy (left panel). Scale bars=10 μm. Oil Red O inside the cells was extracted and quantified at 520 nm (right panel). Expression of PPAR-γ and C/EBPα in 3T3-L1 cells treated with inducer in the presence of rosiglitazone (RSG) or cytopiloyne was analyzed by Western blot (C). The relative expression level (REL) of aP2 and adiponectin in 3T3-L1 cells was measured using real-time PCR (D). Effect of cytopiloyne on differentiation of human SGBS cells. The cells were incubated with DMEM/F12 medium (vehicle) or differentiation medium for 3 days (E). The cells were then incubated with vehicle (inducer) and cytopiloyne (25 μM) until a complete differentiation. […]
MTT assay was used to determine cell viability of adipocytes. […] The plate was measured at 570 nm (signal) and 650 nm (reference) using a microplate reader (UVM340, Biochrom, UK).

[2] = tested on: PPARγ; assay: PPARγ expression in 3T3-L1 cells (Western blot); assay type: cell-based, mouse; conditions: inducer plus test substance
Protocol: 3T3-L1 pre-adipocytes were initiated for differentiation with DMSO (vehicle) and a mixture of Dex, IBMX and insulin for 2 days (B). The differentiating cells were then incubated with vehicle (inducer), rosiglitazone (RSG) or different doses of cytopiloyne until complete differentiation occurred. […] Expression of PPAR-γ and C/EBPα in 3T3-L1 cells treated with inducer in the presence of rosiglitazone (RSG) or cytopiloyne was analyzed by Western blot (C).
3T3-L1 cells were maintained in DMEM medium containing 10% FBS, 4 mM glutamine, 4.5 g/L glucose, 1 mM sodium pyruvate, and 1.5 g/L sodium bicarbonate. The differentiation of 3T3-L1 cells into adipocytes was initiated by the addition of 10 μM Dex, 0.5 mM IBMX and 10 μg/mL insulin to the confluent cells for 2 days. The cells were then differentiated in medium containing 10 μg/mL insulin together with DMSO, rosiglitazone and cytopiloyne for an additional 8 to 10 days. The medium was changed every 2 days until the differentiation was complete.

[3] = tested on: aP2; assay: aP2 expression in 3T3-L1 cells (real-time PCR); assay type: cell-based, mouse
Protocol: as §1, with “differentiation. The cells were stained with Oil Red O and photographed. Scale bar=20 μm.” for “differentiation.”

[4] = tested on: C/EBPα; assay: C/EBPα expression in 3T3-L1 cells (Western blot); assay type: cell-based, mouse; conditions: inducer plus test substance
Protocol: as §1
Western Blot. […] After developing with ECL substrate (GE Healthcare, UK), the membranes were detected using FLUORCHEM™ HD2 system (Bio-Techne, Minneapolis, Minn., USA).

[5] = tested on: 3T3-L1 pre-adipocytes; assay: Differentiation of 3T3-L1 pre-adipocytes, Oil Red O staining and lipid quantification; assay type: cell-based, mouse; conditions: 3T3-L1, inducer (Dex, IBMX and insulin) plus test substance
Protocol: as §1, with “(E).” for “(E). The cells were then incubated with vehicle (inducer) and cytopiloyne (25 μM) until a complete differentiation.”
(§2) The differentiated adipocytes were washed with phosphate-buffered saline (PBS) and fixed with 4% formaldehyde for 15 min. […] For lipid quantification, isopropanol was used to extract the intracellular oil red O, followed by measurement at 520 nm using a microplate reader.

[6] = tested on: human SGBS cells; assay: Differentiation of human SGBS cells, Oil Red O staining; assay type: cell-based; conditions: 25 μM
Protocol: as §1, with “(E).” for “(E). The cells were then incubated with vehicle (inducer) and cytopiloyne (25 μM) until a complete differentiation.”
as §2

[7] = tested on: adiponectin; assay: Adiponectin expression in 3T3-L1 cells (real-time PCR); assay type: cell-based, mouse
Protocol: as §1, with “differentiation. The cells were stained with Oil Red O and photographed. Scale bar=20 μm.” for “differentiation.”

CC#CC#CC#CC#CCCC(CO)O[C@@H]1O[C@H](CO)[C@@H](O)[C@H](O)[C@H]1O (stereo partly drawn) [cytopiloyne, 2-β-D-glucopyranosyloxy-1-hydroxytrideca-5,7,9,11-tetrayne]
cytotoxicity (MTT) ([1]; 3T3-L1, 25 μM or less): did not show cytotoxicity
cytotoxicity (MTT) ([1]; 3T3-L1, 50 μM): slight cytotoxicity
PPARγ expression up-regulated by the inducer [2]: abolished the up-regulation
expression level of aP2 up-regulated by the inducer [3]: abolished this up-regulation
C/EBPα expression up-regulated by the inducer [4]: abolished the up-regulation
production of lipid droplets in adipocytes [5]: dose-dependently inhibited this production
production of lipid droplets [6]: inhibitory effect of cytopiloyne on the production of lipid droplets was confirmed
expression level of adiponectin up-regulated by the inducer [7]: abolished this up-regulation

Reference: patent publication US10632165B2, “Beneficial effect of Bidens pilosa on fat decrease and muscle increase” (Academia Sinica, priority 2016, dated 2020)
